Test [1] addresses T1, Adenosine receptor A1 (Homo sapiens, UniProt P30542).
T1 sequence (P30542 whole entry): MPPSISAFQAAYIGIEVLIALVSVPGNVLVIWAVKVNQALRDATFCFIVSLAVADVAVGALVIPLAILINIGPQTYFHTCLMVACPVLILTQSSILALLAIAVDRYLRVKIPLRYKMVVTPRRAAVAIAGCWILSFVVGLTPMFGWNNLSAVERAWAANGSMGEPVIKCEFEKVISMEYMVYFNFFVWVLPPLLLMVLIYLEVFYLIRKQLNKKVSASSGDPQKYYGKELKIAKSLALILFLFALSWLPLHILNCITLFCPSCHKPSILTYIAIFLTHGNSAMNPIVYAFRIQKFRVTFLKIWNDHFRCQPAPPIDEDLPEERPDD

The target of test [2] is Cannabinoid receptor 1 (Homo sapiens, UniProt P21554). It counts as functional, cell-based.
Test [3] has as its target Vasopressin V2 receptor (Homo sapiens, UniProt P30518).
Test [4] concerns the target T2, 5-hydroxytryptamine receptor 2B (Homo sapiens, UniProt P41595). It counts as functional, cell-based.
In test [5] the target is Mu-type opioid receptor (Homo sapiens, UniProt P35372). As to the kind of experiment: biochemical. The class given is functional.
In test [6] the target is Kappa-type opioid receptor (Homo sapiens, UniProt P41145).
Test [7] concerns the target Muscarinic acetylcholine receptor M3 (Homo sapiens, UniProt P20309).
Test [8] concerns the target T3, Alpha-2C adrenergic receptor (Homo sapiens, UniProt P18825).
T3 sequence (P18825 whole entry): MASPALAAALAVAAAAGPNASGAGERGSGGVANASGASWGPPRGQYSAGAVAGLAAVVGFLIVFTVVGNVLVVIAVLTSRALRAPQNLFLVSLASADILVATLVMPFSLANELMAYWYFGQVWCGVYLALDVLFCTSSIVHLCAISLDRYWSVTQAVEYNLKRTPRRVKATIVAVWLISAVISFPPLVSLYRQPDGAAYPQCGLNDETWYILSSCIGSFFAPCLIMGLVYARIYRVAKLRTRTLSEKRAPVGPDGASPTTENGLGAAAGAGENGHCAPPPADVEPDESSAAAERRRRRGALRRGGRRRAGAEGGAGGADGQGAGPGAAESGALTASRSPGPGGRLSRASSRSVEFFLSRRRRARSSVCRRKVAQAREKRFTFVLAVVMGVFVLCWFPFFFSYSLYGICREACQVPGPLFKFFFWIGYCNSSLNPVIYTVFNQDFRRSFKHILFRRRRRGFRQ
The class given is functional.

Test [9] addresses T4, B2 bradykinin receptor (Homo sapiens, UniProt P30411).
T4 sequence (P30411 whole entry): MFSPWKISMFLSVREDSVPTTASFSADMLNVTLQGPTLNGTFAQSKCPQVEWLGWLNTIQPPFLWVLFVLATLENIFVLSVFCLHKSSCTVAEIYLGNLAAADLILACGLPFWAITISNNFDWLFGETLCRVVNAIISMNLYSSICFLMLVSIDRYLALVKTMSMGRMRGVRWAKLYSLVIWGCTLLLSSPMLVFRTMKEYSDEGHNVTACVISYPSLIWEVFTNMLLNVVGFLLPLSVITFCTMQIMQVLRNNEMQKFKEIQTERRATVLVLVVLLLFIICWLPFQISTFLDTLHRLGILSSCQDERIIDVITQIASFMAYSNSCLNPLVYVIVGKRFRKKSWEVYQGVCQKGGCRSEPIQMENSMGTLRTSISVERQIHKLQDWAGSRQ

For test [10], the target named is Histamine H3 receptor (Homo sapiens, UniProt Q9Y5N1).
Test [11] concerns the target T2, 5-hydroxytryptamine receptor 2B. It counts as functional, cell-based. The source holds these as a separate data set.
Test [12] addresses Sodium-dependent noradrenaline transporter (Homo sapiens, UniProt P23975).
Test [13] addresses Gamma-aminobutyric acid receptor subunit alpha-1 (Rattus norvegicus, UniProt P62813). It counts as functional.
Test [14] concerns the target Histamine H1 receptor (Homo sapiens, UniProt P35367).
Test [15] has as its target Vasopressin V1a receptor (Homo sapiens, UniProt P37288).
The target in test [16] is T5, Alpha-2A adrenergic receptor (Homo sapiens, UniProt P08913).
T5 sequence (P08913 whole entry): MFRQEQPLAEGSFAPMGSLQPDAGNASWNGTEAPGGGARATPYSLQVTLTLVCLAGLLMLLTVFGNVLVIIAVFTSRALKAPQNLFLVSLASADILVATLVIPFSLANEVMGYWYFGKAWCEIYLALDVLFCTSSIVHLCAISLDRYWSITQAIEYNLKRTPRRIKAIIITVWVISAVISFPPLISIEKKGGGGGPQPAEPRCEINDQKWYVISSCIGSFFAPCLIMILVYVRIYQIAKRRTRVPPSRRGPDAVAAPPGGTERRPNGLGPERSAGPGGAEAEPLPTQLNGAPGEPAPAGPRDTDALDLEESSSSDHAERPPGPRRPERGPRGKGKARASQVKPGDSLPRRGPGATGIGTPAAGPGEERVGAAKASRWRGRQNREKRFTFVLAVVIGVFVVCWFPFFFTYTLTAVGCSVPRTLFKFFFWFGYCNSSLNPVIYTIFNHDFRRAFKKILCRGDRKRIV
The class given is functional, cell-based.

For test [17], the target named is Adenosine receptor A2a (Homo sapiens, UniProt P29274).
The target of test [18] is Growth hormone secretagogue receptor type 1 (Homo sapiens, UniProt Q92847).

By AC50 is commonly meant the concentration giving half of the maximal activity seen. Read a low AC50 as activity at low concentration.
Also: assay procedure not described here.

Chain of Histamine H3 receptor (Q9Y5N1 whole entry): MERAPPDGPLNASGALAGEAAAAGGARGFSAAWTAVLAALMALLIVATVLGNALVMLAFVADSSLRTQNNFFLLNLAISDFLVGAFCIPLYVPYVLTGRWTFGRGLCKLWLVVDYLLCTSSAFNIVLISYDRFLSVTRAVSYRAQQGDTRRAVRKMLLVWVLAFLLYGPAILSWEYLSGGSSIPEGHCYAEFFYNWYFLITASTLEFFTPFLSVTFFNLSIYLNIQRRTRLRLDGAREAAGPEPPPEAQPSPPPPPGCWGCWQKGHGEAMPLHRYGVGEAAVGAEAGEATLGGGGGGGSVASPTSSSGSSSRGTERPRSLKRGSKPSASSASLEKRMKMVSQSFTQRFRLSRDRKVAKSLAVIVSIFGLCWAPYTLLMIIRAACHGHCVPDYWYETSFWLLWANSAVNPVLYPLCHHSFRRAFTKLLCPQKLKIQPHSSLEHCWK
Chain of Mu-type opioid receptor (P35372 whole entry): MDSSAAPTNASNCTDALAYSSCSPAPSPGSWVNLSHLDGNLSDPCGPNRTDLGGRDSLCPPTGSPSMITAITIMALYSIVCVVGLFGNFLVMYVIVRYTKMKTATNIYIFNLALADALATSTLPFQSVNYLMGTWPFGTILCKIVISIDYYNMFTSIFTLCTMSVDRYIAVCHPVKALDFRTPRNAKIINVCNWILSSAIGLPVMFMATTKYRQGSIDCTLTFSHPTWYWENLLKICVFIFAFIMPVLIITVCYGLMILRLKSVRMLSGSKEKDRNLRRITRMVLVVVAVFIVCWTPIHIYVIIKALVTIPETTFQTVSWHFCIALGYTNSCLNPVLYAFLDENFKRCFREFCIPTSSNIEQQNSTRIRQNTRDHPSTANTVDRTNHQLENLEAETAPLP
Chain of Histamine H1 receptor (P35367 whole entry): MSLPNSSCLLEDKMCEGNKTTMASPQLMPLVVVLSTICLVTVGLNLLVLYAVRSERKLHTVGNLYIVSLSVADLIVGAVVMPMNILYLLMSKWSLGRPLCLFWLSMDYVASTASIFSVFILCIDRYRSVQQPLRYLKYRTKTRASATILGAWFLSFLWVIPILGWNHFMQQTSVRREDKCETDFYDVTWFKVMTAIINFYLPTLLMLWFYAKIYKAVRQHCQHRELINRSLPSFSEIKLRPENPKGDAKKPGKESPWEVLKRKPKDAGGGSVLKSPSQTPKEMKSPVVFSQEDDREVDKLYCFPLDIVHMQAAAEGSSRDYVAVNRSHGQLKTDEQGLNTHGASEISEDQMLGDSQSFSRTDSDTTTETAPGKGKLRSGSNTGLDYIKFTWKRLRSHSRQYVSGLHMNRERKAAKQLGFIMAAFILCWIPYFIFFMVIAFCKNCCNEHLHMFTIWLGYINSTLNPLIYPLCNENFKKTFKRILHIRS
Chain of Vasopressin V2 receptor (P30518 whole entry): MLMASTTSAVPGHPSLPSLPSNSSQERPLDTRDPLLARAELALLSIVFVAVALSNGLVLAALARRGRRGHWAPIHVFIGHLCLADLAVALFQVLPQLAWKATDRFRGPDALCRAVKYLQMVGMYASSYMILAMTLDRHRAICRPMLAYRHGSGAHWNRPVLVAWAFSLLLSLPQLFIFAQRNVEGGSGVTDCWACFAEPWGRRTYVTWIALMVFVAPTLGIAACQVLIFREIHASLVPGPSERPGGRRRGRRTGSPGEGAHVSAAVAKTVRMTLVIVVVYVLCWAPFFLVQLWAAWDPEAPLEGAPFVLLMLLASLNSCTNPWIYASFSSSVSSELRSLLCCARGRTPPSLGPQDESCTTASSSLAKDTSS
Chain of Muscarinic acetylcholine receptor M3 (P20309 whole entry): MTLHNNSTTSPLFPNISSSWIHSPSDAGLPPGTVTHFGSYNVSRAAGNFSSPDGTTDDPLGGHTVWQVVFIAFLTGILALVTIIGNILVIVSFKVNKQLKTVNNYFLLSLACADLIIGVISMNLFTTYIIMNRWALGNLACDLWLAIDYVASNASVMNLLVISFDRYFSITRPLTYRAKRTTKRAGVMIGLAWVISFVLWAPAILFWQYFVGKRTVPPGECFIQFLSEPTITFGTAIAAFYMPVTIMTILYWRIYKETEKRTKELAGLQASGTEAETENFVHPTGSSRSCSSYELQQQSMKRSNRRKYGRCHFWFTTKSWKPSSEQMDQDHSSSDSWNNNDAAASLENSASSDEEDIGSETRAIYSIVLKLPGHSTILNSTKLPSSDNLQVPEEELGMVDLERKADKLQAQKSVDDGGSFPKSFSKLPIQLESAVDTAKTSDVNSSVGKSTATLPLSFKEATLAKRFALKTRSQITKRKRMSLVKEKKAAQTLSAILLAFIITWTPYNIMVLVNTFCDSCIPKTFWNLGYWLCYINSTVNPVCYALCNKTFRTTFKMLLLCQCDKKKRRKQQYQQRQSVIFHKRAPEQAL
Chain of Adenosine receptor A2a (P29274 whole entry): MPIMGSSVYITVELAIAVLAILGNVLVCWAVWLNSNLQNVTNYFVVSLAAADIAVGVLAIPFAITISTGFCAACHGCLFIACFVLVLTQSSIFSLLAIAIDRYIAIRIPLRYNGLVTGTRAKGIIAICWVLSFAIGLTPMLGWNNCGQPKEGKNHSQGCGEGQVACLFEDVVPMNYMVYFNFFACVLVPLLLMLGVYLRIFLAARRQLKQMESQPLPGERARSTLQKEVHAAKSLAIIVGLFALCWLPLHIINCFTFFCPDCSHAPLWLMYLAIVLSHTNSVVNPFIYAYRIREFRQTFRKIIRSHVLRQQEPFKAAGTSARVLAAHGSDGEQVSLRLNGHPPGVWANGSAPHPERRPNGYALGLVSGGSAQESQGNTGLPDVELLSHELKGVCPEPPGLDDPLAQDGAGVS
T2 sequence (P41595 whole entry): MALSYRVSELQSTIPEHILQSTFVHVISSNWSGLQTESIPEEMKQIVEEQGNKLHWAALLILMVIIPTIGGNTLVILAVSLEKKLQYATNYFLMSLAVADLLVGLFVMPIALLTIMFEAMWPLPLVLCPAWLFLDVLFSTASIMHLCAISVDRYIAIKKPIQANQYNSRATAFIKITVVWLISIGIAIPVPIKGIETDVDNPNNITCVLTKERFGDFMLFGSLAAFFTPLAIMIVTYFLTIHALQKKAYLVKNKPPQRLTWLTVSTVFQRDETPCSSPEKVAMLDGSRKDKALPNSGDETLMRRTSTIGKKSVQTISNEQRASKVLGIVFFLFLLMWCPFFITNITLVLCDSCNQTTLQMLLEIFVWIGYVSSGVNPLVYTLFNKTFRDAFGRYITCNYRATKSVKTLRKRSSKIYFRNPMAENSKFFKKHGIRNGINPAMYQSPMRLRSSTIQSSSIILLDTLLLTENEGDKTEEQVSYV
Chain of Cannabinoid receptor 1 (P21554 whole entry): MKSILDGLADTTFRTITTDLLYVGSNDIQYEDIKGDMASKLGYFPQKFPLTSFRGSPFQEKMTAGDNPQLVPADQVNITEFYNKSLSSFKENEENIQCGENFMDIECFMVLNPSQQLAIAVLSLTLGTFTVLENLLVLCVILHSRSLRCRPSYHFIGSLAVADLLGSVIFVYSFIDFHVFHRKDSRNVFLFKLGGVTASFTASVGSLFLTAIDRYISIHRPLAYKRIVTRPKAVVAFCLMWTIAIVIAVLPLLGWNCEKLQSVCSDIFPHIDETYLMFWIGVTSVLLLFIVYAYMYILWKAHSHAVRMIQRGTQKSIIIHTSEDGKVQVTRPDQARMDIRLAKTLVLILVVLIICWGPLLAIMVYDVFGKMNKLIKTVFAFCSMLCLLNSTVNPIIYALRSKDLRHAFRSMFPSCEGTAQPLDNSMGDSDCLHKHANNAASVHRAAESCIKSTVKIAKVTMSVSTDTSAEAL
Chain of Kappa-type opioid receptor (P41145 whole entry): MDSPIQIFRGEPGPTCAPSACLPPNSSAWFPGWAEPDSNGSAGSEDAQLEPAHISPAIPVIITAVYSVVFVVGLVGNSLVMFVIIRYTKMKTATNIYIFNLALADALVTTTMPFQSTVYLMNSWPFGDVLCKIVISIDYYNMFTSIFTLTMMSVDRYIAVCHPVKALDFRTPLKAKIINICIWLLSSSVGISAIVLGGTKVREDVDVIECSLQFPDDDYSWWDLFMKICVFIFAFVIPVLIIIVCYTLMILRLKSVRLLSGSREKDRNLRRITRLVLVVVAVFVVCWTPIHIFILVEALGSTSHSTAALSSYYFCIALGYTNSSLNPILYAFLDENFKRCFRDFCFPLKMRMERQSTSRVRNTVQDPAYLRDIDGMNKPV
Chain of Growth hormone secretagogue receptor type 1 (Q92847 whole entry): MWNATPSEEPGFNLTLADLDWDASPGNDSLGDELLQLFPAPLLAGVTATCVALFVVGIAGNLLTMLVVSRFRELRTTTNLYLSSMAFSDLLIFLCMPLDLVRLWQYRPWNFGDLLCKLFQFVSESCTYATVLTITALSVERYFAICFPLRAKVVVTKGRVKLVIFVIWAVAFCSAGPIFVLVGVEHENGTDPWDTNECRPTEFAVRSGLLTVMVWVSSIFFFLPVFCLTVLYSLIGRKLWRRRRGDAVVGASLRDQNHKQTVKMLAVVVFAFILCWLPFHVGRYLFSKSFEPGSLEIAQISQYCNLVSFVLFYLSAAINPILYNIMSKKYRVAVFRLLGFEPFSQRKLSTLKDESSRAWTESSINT
Chain of Gamma-aminobutyric acid receptor subunit alpha-1 (P62813 whole entry): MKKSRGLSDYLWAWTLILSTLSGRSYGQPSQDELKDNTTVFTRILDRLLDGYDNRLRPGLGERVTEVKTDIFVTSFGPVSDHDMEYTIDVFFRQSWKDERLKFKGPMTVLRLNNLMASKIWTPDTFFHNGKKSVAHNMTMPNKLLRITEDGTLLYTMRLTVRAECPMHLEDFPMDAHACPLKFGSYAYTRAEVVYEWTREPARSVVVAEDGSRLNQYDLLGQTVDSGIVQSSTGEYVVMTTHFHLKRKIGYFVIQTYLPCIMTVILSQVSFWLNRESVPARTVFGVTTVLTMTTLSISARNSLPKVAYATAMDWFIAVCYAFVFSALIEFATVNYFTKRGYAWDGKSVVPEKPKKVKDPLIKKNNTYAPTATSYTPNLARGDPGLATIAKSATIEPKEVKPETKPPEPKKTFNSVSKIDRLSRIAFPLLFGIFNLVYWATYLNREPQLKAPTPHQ

On to `COc1ccccc1OCCNCC(O)c1ccc(C)c(S(N)(=O)=O)c1` (centres undefined) [AMOSULALOL], for which the AC50 in test [1], in test [2], in test [3], in test [4], in [5] and in test [6] was above 30 µM throughout. Also, the AC50 in [7] is above 30 µM; in test [8] it was 2.3 µM; in test [9], above 30 µM; in test [10], above 30 µM; in test [11] it was 1.6 µM; in test [12], above 30 µM. The AC50 in [13] was above 30 µM; in test [14], 16 µM; in [15], above 30 µM; in [16] it was 9.1 µM; in test [17], above 30 µM; in [18], above 30 µM.

For the compound `COC(=O)C1=C(C)NC(C)=C(C(=O)OC2CCCN(Cc3ccccc3)C2)C1c1cccc([N+](=O)[O-])c1` (centres undefined) [BENIDIPINE], the AC50 was above 30 µM in test [1]; 16 µM in test [2]; above 30 µM in test [3]; above 30 µM in test [4]; above 30 µM in test [5]; 1.5 µM in test [6]. Also, the AC50 in [7] was above 30 µM; in test [8], 27 µM; in [9] it was above 30 µM; in [10], above 30 µM; in [11], above 30 µM; in test [12], 13 µM. Also, the AC50 in test [13] is above 30 µM; in test [14], 27 µM; in test [15], above 30 µM; in test [16] it was above 30 µM; in [17] it was above 30 µM; in test [18], 26 µM.

Regarding `CCN1CCN(C(=O)N[C@@H](C(=O)N[C@@H]2C(=O)N3C(C(=O)O)=C(CSc4nnnn4C)CS[C@H]23)c2ccc(O)cc2)C(=O)C1=O` [CEFOPERAZONE], the AC50 in test [1] is above 30 µM; in test [2] it was above 30 µM; in test [3] it was above 30 µM; in [4], above 30 µM; in test [5] it was above 30 µM; in test [6], above 10 µM. For the same compound, the AC50 in test [7], in [8], in [9], in test [10], in test [11] and in [12] was above 30 µM in each case. In addition, the AC50 in [13], in [14], in test [15], in test [16], in [17] and in test [18] was above 30 µM in each case.

For `CC(=O)OCC(=O)[C@@]12N=C(C)O[C@@H]1C[C@H]1[C@@H]3CCC4=CC(=O)C=C[C@]4(C)[C@H]3[C@@H](O)C[C@@]12C` [DEFLAZACORT], the AC50 in test [1], in test [2], in test [3], in [4], in [5] and in [6] was above 30 µM throughout. Besides, the AC50 in [7], in test [8], in [9], in [10], in test [11] and in [12] was above 30 µM throughout. The AC50 in test [13], in test [14], in test [15], in [16], in test [17] and in test [18] was above 30 µM in each case.

As for `CCCCCCOc1ccccc1C(N)=O` [EXALAMIDE], the AC50 in [1] was above 30 µM; in [2] it was above 30 µM; in [3], above 30 µM; in test [4], above 30 µM; in test [5] it was above 30 µM; in test [6], 9.3 µM. Besides, the AC50 is above 30 µM in [7]; above 30 µM in test [8]; above 30 µM in [9]; above 30 µM in test [10]; 1.1 µM in [11]; above 30 µM in test [12]. The AC50 in test [13], in [14], in test [15], in test [16], in test [17] and in [18] was above 30 µM in each case.

Regarding `COc1ccc(CCN(C)CCCC(C#N)(c2cc(OC)c(OC)c(OC)c2)C(C)C)cc1OC` (centres undefined) [GALLOPAMIL], the AC50 in test [1] was above 30 µM; in [2], above 30 µM; in [3], above 30 µM; in test [4], above 30 µM; in test [5], above 30 µM; in test [6], 2.5 µM. Also, the AC50 in test [7] was above 30 µM; in test [8], 7.6 µM; in test [9] it was above 30 µM; in test [10], above 30 µM; in test [11], 0.86 µM; in test [12], above 30 µM. Besides, the AC50 in test [13] was above 30 µM; in test [14], above 30 µM; in [15], above 30 µM; in test [16], 25 µM; in test [17], above 30 µM; in test [18], above 30 µM.

As to `CC(C)C(=O)c1c(C(C)C)nn2ccccc12` [IBUDILAST], the AC50 in test [1] was 20 µM; in test [2], above 30 µM; in test [3] it was above 30 µM; in test [4], above 30 µM; in [5], above 30 µM; in [6], above 30 µM. Further, the AC50 in test [7], in test [8], in [9], in test [10], in test [11] and in test [12] was above 30 µM in each case. Moreover, the concentration at half-maximal activity (AC50) in [13] was 5.7 µM; in test [14], above 30 µM; in [15] it was above 30 µM; in test [16], above 30 µM; in [17], 17 µM; in test [18] it was above 30 µM.

For the compound `CCC(C(=O)O)c1ccc(N2Cc3ccccc3C2=O)cc1` (centres undefined) [INDOBUFEN], the AC50 in test [1], in [2], in test [3], in [4], in test [5] and in test [6] was above 30 µM in each case. The AC50 in [7], in [8], in test [9], in test [10], in [11] and in test [12] was above 30 µM each time. Further, the AC50 in test [13], in [14], in test [15], in test [16], in test [17] and in test [18] was above 30 µM in each case.

The values above are taken from ChEMBL document CHEMBL5291721, “A preclinical secondary pharmacology resource illuminates target-adverse drug reaction associations of marketed drugs” (Nat Commun, 2023).
